Like-named read-outs stand apart in the source and are kept apart here.
Experiments:
[1] = test system: rats; settings: oral CrCl3; cited from earlier work
[2] = test system: rats; settings: cited from earlier work
[3] = test system: subjects taking statin drugs; experiment: Clinical trial of chromium picolinate on statin-induced insulin resistance (Example 1); assay type: in vivo, human; settings: 400 μg chromium, one capsule a day orally, approximately six months, versus statin drug without chromium supplementation
Method: The effect of a chromium complex in inhibiting drug-induced insulin resistance is evaluated. Specifically, the effects of chromium picolinate on insulin sensitivity and vascular reactivity in subjects taking statin drugs are evaluated.
A clinical trial is initiated which includes approximately 80 male and female subjects between the ages of 35 and 65. The subject population is characterized as individuals suffering from moderate hypercholesterolemia and moderate high blood pressure. All subjects have been diagnosed with hypercholesterolemia. LDLC based on 75th percentile (>140-165 mg/dL) and HDL-C: <30 mg/dL. […]
Study visits are scheduled at the start of the study to record baseline information on the subjects and every two weeks thereafter. The following physiological conditions are measured prior to administration of the supplement as a baseline and at regular intervals during the course of the study: Glycated hemoglobin, fasting insulin, fasting plasma glucose levels, total cholesterol, triglycerides, LDL, HDL, urinalysis (routine), CBC, and serum chemistry, as well as blood pressure and body weight. In addition, insulin sensitivity is measured according to the euglycemic-hyperinsulinemic glucose clamp technique specified by R. A. DeFronzo et al. Glucose Clamp Technique: A Method for Quantifying Insulin Secretion and Resistance, 237 Am. […]

Question: With CC(=O)Oc1ccccc1C(=O)O [aspirin] as the molecule, how does the “effect on chromium absorption” value [1] read?
Answer: facilitated

Question: For [Cl][Cr]([Cl])[Cl] [chromium chloride], which toxic effects ([2]; levels several thousand times the upper limit of the ESADDI for chromium for humans (based on body weight)) is on record?
Answer: without toxic effects

Question: Which toxic effects ([2]; rat, in vivo) does the source give for chromium picolinate here?
Answer: without toxic effects

Question: And the “incidence of drug-induced insulin resistance” value [3]?
Answer: lower incidence of drug-induced insulin resistance

From patent publication US20050214384A1, “Chromium compositions and methods for using the same for inhibiting drug-induced insulin resistance” (priority 2002, published 2005)
